# Measurements reported in patent US20080194877A1, “Benzamidine Derivatives for Treatment and Prevention of Cancer Therapy Induced Mucositis” ([…].p.A., priority 2005, published 2008).
# Where “and” joins values, the source holds several entries; their conditions need not be identical. Identical values can stand only once. Like-named read-outs stand apart in the source and are kept apart here.
# Key:
# [1] = 25° C.
# [2] = tested on: ROS generation in human PMNL; experiment: Inhibition of luminol-dependent chemiluminescence (ROS generation) in PMA-activated human PMNL; type: cell-based; conditions: for IC50: 0.1 μM PMA
# Procedure: Background to the assay: One of the most important events involved in the intracellular cascade leading to NF-kB activation is the generation of oxidative stress and the increase of ROS; the inhibition of these species can contribute to reduce the direct damage to DNA and subsequent clonogenic cell death, and also to diminish the transcription factors activation. The effect of compound 1.1 on luminol-dependent chemiluminescence assay was assessed in human PMNL.
# Human neutrophils were obtained from healthy volunteers. Blood was anti-coagulated with Na-Citrate 0.38% and neutrophils were purified according to Boyum (Boyum A. Scand J Clin Invest 1968;21:77-89). The neutrophil purification was achieved by gradient centrifugation on Histo-paque at 400 g for 30 min. Resulting neutrophils were suspended in PBS plus 0.87 mM CaCl2, 1 mM MgCl2, counted, and diluted to 2.5×10^6/ml. Neutrophil suspension was premixed with luminol (5 μM final). A 200 μl-aliquot of cell suspension was incubated into a 96-well plate, with drugs for 10 min at 37° C. Neutrophils were activated with 0.1 μM phorbol 12-myristate 13-acetate (PMA) and the light emission was monitored at 3 min intervals for 24 min in a HTS7000 plus microplate reader. Results were expressed as reduction of the fluorescent signal recorded for cell activated with PMA alone.
# Activation of neutrophils with 0.1 μM PMA induced a time-dependent increase in signal luminescence, with a maximal increase within 10-12 min. […] The data are illustrated in FIG. 1.
# IL-1β = experiment: LPS-induced IL-1β release in rat peritoneal macrophages; type: cell-based; conditions: LPS 1 μg/ml, 24 h
# Text: (§1) Background to the assay: Nuclear factor-κB (NF-κB), a key element in the genesis of mucositis, has the capacity to upregulate a large panel of genes, including those that result in the production of pro-inflammatory cytokines, TNFα, IL-1 and IL-6, all leading to apoptosis and tissue injury, and to up-regulate genes that can cause the expression of iNOS and cyclooxygnase-2. The third phase of mucositis is indeed characterized by the amplification of signaling triggered by pro-inflammatory cytokines. The effect of compound 1.1 was assessed in rat peritoneal macrophages.
# (§2) Primary cell cultures were obtained from male albino rats (SD, 200-250 g, Harlan, Italy), as described in Methods in Enzymology (Methods in Enzymology, vol. LVIII, pages 494-506). Cells were stimulated, the day after plating, with LPS, 1 μg/ml or 0.1 μg/ml as stated, for 24 h. Compounds were added 20 min before stimulation. The stimulation was performed in DMEM, 1 g/l glucose, 50 μg/ml gentamicin. Supernatants and cell lysates were collected and stored at −80° C. until use. Cytokine quantisation in supernatants was determined by means of commercially available ELISA Kits for rat TNFα, rat IL-1β and rat IL-6 (Amersham).
# (§3) Activation of macrophages with 1 μg/ml LPS induced an increase over basal in cytokine production.
# IL-6 = experiment: LPS-induced IL-6 release in rat peritoneal macrophages; type: cell-based; conditions: LPS 1 μg/ml, 24 h
# Text: as §1, §2, §3
# TNFα = experiment: LPS-induced TNFα release in rat peritoneal macrophages; type: cell-based; conditions: LPS 1 μg/ml, 24 h
# Text: as §1, §2, §3
# iNOs protein expression = experiment: LPS-induced iNOS protein expression in rat macrophages (Western blot); type: cell-based; conditions: 30 μM; LPS 0.1 μg/ml, 24 h
# Procedure: as §2
# (§4) Western blot analysis of iNOS and COX-2: Cell lysates were analyzed by SDS-PAGE. Proteins were transferred onto PVDF membranes and saturated in blocking buffer. Membranes were incubated for 2 h at RT with the following antibodies: anti-COX-2, anti-iNOS, anti-β-actin and further incubated with a secondary antibody for 45 min at RT. Detection was performed using ECL (Amersham). Quantisation was determined by densitometry analysis using NIH Image software.
# (§5) Evaluation of mediator of inflammation such as iNOS and COX-2, was performed in macrophages stimulated with 0.1 μg/ml LPS for 24 h. […]
# COX-2 protein expression = experiment: LPS-induced COX-2 protein expression in rat macrophages (Western blot); type: cell-based; conditions: 30 μM; LPS 0.1 μg/ml, 24 h
# Procedure: as §2, §4, §5
# rat gastric mucosa = experiment: Gastric ulcer induced by indomethacin in rat; type: in vivo
# Text: Indomethacin induces the formation of acute gastric mucosal lesions. The histologic damage is represented by necrosis with loss of surface epithelium, submucosal oedema and leukocyte infiltration. The mechanism involves a neutrophil-dependent process inducing a variety of inflammatory mediators such as reactive oxygen species, and direct detrimental action by indomethacin on processes linked to epithelial proliferation and apoptosis. The epithelial repairing process is due to continuity of epithelial cells with healthy cells of gastric pits that can migrate to the basement membrane; re-epithelialization and reconstruction of the mucosal architecture is under the control of growth factors produced locally by regenerating cells.
# 20 male SD rats (140-160) were used. The animals were deprived of food but not water 24 hours prior the experiment. Gastric ulcer was induced in conscious rats by oral administration of 10 mg/kg/4 ml of indomethacin, suspended in methylcellulose 0.5%. The tested drug was administered 30 min by gavage (os), or 15 min by subcutaneously (sc), before indomethacin.
# Four hours after indomethacin administration, the animals were sacrificed by excess of ether. The stomach was dissected out, opened along the greater curvature, and the mucosa was examined by an observer who was unaware of the treatment given. The extent of ulcers was measured with a 10× binocular fitted with a 0.1 mm-division scale. Data are presented as total length of ulcers per group.
# The animals were divided into 4 groups of 5 animals, and were treated as follows:
# Groups: • 1. 10 mg/kg Compound 1.1, administered prior to 10 mg/kg indomethacin, os. • 2. 5 mg/kg Compound 1.1, administered prior to 10 mg/kg indomethacin, os. • 3. 1 mg/kg Compound 1.1, administered prior to 10 mg/kg indomethacin, os. • 4. vehicle, administered prior to 10 mg/kg indomethacin, os.
# Compound 1.1 was given at 1, 5 and 10 mg/kg prior to indomethacin. […] In Compound 1.1 treated groups the levels of ulcerated animals decreased dose-dependently.
# [3] = tested on: clonogenic crypt cells of the small intestine; experiment: Mouse mucositis model (clonogenic crypt cell death induced by whole body irradiation); type: in vivo; conditions: for crypt width (μm) / no. crypts/circumference: average +/− sd; for corrected crypts/circumference: corrected for crypt width
# Text: There are thought to be between four and sixteen actual stem cells in each crypt of the small intestine. There are also a further reserve of clonogenic cells which are capable of regenerating the crypt when all the actual stem cells have been killed. The survival of these clonogenic cells is therefore key to the survival of the crypt and the restoration of an intact epithelial lining following cytotoxic injury (only one clonogenic cell needs to survive to ensure the survival of the crypt, and therefore the maintenance of an intact epithelium). Growth factors and other molecules can be used to manipulate the sensitivity of these cells to cytotoxic agents, and thereby reduce the severity of gastrointestinal and oral mucositis. Factors given prior to a cytotoxic insult may increase clonogenic cell number (thereby increasing the probability of clonogen survival) or act to arrest the cell cycle in such cells (thereby making them more resistant to damage or death). […] A combination of both protocols could give maximum protection to the epithelium.
# The effects of administration for 3 days before radiation exposure were tested.
# 30 adult male BDF1 mice (aged 10-12 weeks) were used. The animals were housed for 2 weeks in individually ventilated cages on a 12 hr light:dark cycle to stabilize the circadian rhythm. Animals were allowed food and water ad libitum throughout.
# The animals were divided into 5 groups of 6 animals, and were treated as follows:
# Groups: • 1. Gavage 20 mg/kg Compound 1.1 72, 48 and 24 hrs prior to 13Gy X-ray exposure (whole body). • 2. Gavage 10 mg/kg Compound 1.1 72, 48 and 24 hrs prior to 13Gy X-ray exposure (whole body). • 3. Gavage 5 mg/kg Compound 1.1 72, 48 and 24 hrs prior to 13Gy X-ray exposure (whole body). • 4. Gavage vehicle 72, 48 and 24 hrs prior to 13Gy X-ray exposure (whole body). • 5. Untreated, un-irradiated controls.
# Intestinal damage was induced using a single dose of 13Gy X-irradiation. Four days after irradiation the animals were sacrificed. The small intestine was removed and fixed in Carnoy's fixative prior to processing for histological analysis. 3 μm sections were cut and stained with haematoxylin and eosin. Foci of regeneration (surviving crypts with one or more clonogenic cells) were clearly visible in the irradiated sections. Other than these foci the mesenchyme was entirely denuded; these animals would develop diarrhea and die due to mucositis if allowed to live beyond four days.
# For each animal ten intestinal circumferences were analyzed (60 per group)—a circumference is equivalent to a given length of intestine and therefore a convenient baseline unit of length. The number of surviving crypts per circumference was scored and the average per group determined. Only crypts containing 10 or more strongly haematoxylin and eosin stained cells (excluding Paneth cells) and only intact circumferences not containing Peyers patches were scored (Peyers patches influence both the number of crypts in a normal circumference and the ability of a crypt to survive insult).
# The average crypt width (measured at its widest point) was also measured in order to correct for scoring errors due to crypt size difference. The correction is applied thus: Corrected number of crypts/circumference=
# [4] = 5 mg/kg, both administration protocols (os, sc)
# [5] = 5 mg/kg gavage for 3 days pre 13Gy irradiation
# [6] = 10 mg/kg gavage for 3 days pre 13Gy irradiation
# [7] = 20 mg/kg gavage for 3 days pre 13Gy irradiation
smiles,measurement,setting,value
"CCCCCNC(=S)Nc1ccc(NC(C)=N)cc1.O=C(O)/C=C\C(=O)O [Maleate, N-[4-(N-acetamidine)phenyl]-N′-pentyl thiourea maleate]",Solubility in water,[1],3.12 mg/mL
same,Solubility in water (%),[1],0.31%
"CCCCCNC(=S)Nc1ccc(NC(C)=N)cc1.CS(=O)(=O)O [Methanesulphonate, N-[4-(N-acetamidine)phenyl]-N′-pentyl thiourea methanesulphonate]",Solubility in water,[1],>32 mg/mL
same,Solubility in water (%),[1],>32%
"CCCCCNC(=S)Nc1ccc(NC(C)=N)cc1 [Compound 1.1, N-[4-(N-acetamidine)phenyl]-N′-pentyl thiourea]",% of inhibition of chemiluminescence,[2]; 1 μM,20%
same,Inhibition of ROS generation,[2]; 30 μM (data not shown),completely inhibited ROS generation
same,IC50,"[2]; rising phase, at 15 min, read-out: IC50 luminol-enhanced chemiluminescence, rising phase",6.4 ± 0.6 µM
same,IC50,"[2]; steady phase, at 24 min, read-out: IC50 luminol-enhanced chemiluminescence, steady phase",2.9 ± 0.2 µM
same,IC50,IL-1β,30 µM
same,IC50,IL-6,63 µM
same,IC50,TNFα,54 µM
same,% of inhibition iNOs protein expression,iNOs protein expression,79%
same,% of inhibition COX-2 protein expression,COX-2 protein expression,53%
same,Effectiveness against ulcer at the lower dose,rat gastric mucosa; 1 mg/kg,effective only in the os protocol administration
same,Reduction of extent of ulceration,rat gastric mucosa; 5 mg/kg,80-90%
same,Incidence of ulcer (animals per group),rat gastric mucosa; [4],3/5
same,Incidence of ulcer reduced to,rat gastric mucosa; [4],~50%
same,Ulcerated animals (maximal effect),rat gastric mucosa; 10 mg/kg prior to 10 mg/kg indomethacin,no animals ulcerated
same,Survival and adverse effects,"rat gastric mucosa; rat, 1, 5 and 10 mg/kg",no obvious adverse effects
same,crypt width (μm),[3]; [5],68.54 +/− 6.6 μm
same,no. crypts/circumference,[3]; [5],9.6 +/− 3.4
same,corrected crypts/circumference,[3]; [5],4.7 +/− 1.3
same,crypt width (μm),[3]; [6],68.25 +/− 2.4 μm
same,no. crypts/circumference,[3]; [6],9.2 +/− 4.7
same,corrected crypts/circumference,[3]; [6],4.5 +/− 2.4
same,Increase of crypt survival versus vehicle,[3]; 20 mg/kg,1.9 ×
same,crypt width (μm),[3]; [7],66.19 +/− 3.0 μm
same,no. crypts/circumference,[3]; [7],13.2 +/− 5.7
same,corrected crypts/circumference,[3]; [7],6.7±3.0 and 6.7 +/− 3.0
same,Circumferences without surviving crypt,"[3]; 20 mg/kg, 4% of circumference in vehicle treated mouse",prevented the absence of surviving crypt
same,Increase of crypt survival versus vehicle,[3]; lower doses (5 and 10 mg/kg),about 1.3 times
same,Survival and adverse effects,"[3]; mouse, 5, 10 and 20 mg/kg",no obvious adverse effects
